Source: patent US20240342168A1, “SMALL MOLECULE INHIBITORS FOR ANTI-CANCER COMBINATION THERAPY” (UNIVERSITY OF CAPE TOWN, priority 2021, published 2024)

Experiments:
Type in all cases: cell-based
[1] = system: C33A; assay: MTT cell viability / cisplatin IC50 determination
Description: (§1) HeLa, SiHa, CaSki and C33A cell lines were purchased from the American Type Culture Collection (ATCC) and maintained in Dulbecco's Modified Eagle's Medium (DMEM, Gibco, Life Technologies) containing 10% Fetal Bovine Serum (Gibco, Life Technologies), supplemented with 100 U/mL penicillin and 100 μg/mL streptomycin. Cells were cultured at 37° C. in a humidified chamber with 5% CO2. All cell lines were authenticated by DNA profiling using the Cell ID System (Promega, Madison, WI, USA).
(§2) Cells were plated in 96-well plates and subjected to single or CT (2 h INI-43 pre-treatment followed by cisplatin treatment, without removing IN1-43 from the media) for 48 h. Following treatment, MTT (Sigma) was added and 4 h later crystals solubilized using 10% SLS in 0.01 M HCl. Absorbencies were measured at 595 nm and IC50 values determined via plotting [Fa/(1-Fa)] in log scale against log cisplatin concentration, where:
(§3) The half inhibitory concentration was calculated using the formula IC50=10^x-intercept

[2] = system: CaSki; assay: MTT cell viability / cisplatin IC50 determination; details: for cell viability, combination treatment vs cisplatin-only: 5 μM INI-43 pre-treatment, fixed cisplatin concentrations, MTT 48 h
Description: as §1, §2, §3

[3] = system: HeLa; assay: MTT cell viability / cisplatin IC50 determination; details: for cell viability, combination treatment vs cisplatin-only: 5 μM INI-43 pre-treatment, fixed cisplatin concentrations, MTT 48 h
Description: as §1, §2, §3

[4] = system: SiHa; assay: MTT cell viability / cisplatin IC50 determination; details: for cell viability, combination treatment vs cisplatin-only: 5 μM INI-43 pre-treatment, fixed cisplatin concentrations, MTT 48 h
Description: as §1, §2, §3

[5] = system: HeLa cells; assay: Drug washout experiments (MTT)
Description: Cells were plated in 96-well plates and subjected to 2 h INI-43 pre-treatment followed by cisplatin treatment, with or without removing INI-43 from the media, for 48 h. Following treatment, MTT (Sigma) was added and 4 h later crystals solubilized using 10% SLS in 0.01 M HCl.

[6] = system: p53 reporter activity in SiHa cells; assay: p53-luciferase reporter assay
Description: SiHa cells were transfected with 100 ng p65-luciferase reporter construct (containing five copies of the p65-binding site, Promega) or 200 ng p53-luciferase reporter construct (containing thirteen wildtype p53 binding sites, Addgene plasmid #16442, Addgene Plasmid Repository (el-Deiry W S, Tokino T, Velculescu V E, Levy D B, Parsons R, Trent J M, et al. WAF1, a potential mediator of p53 tumor suppression. Cell. 1993; 75(4):817-25) and 10 ng pRL-TK (encoding Renilla luciferase, Promega), using Genecellin transfection reagent (Celtic Molecular Diagnostics). The following day cells were treated with 5 μM INI-43 for 2 h, followed by 30 μM cisplatin for 24 h, and luciferase activity assayed using the Dual-Luciferase Report assay system (Promega), according to the manufacturer's instructions. Luciferase readings were measured using the Veritas™ microplate luminometer (Promega) and normalised to Renilla luciferase from the same extract.

[7] = system: NFκB-p50 and NFκB-p65 in SiHa cells; assay: Immunofluorescence of NFκB nuclear localization
Description: SiHa cells were plated on glass coverslips and treated for 24 h before fixation with 4% paraformaldehyde. Cells were permeabilised using 0.5% Triton-X-100/PBS and blocked using 1% BSA/PBST with 0.3 M Glycine. Primary antibody incubations were performed in 1% BSA/PBST, followed by secondary antibody incubation (Cy3 conjugated goat anti-rabbit, Jackson ImmunoResearch). Cell nuclei were counterstained with 0.5 μg/mL DAPI, and images captured using the Zeiss inverted fluorescence microscope under 100× oil immersion.

[8] = system: NFκB-p50 and NFκB-p65 in SiHa cells; assay: Nuclear/cytoplasmic fractionation and Western blot; details: INI-43-cisplatin CT vs cisplatin
Description: For protein extraction, cells were washed with PBS and lysed using RIPA buffer (50 mM Tris-CI, pH 7.4, 150 mM NaCl, 1% (w/v) sodium deoxycholate, 0.1% (v/v) SDS, 1% (v/v) Triton X-100, 2 mM EGTA, 2 mM EDTA, 50 mM NaF, 5 mM Na2P2O7, 1× complete protease inhibitor cocktail (Roche) and 0.1 M Sodium Orthovanadate). For PARP cleavage analysis, dead cells were collected by centrifugation and combined with live cell lysates. Lysates were sonicated, centrifuged, and the supernatant quantified using the BCA Protein Assay Kit (Pierce, Thermo Scientific) according to the manufacturer's instructions. […]
For nuclear/cytoplasmic protein extraction, cells were collected by trypsinization. […] The fractions were quantified using the BCA Protein Assay Kit (Pierce, Thermo Scientific) according to the manufacturer's instructions, followed by western blot analysis.

[9] = system: γH2AX; assay: Western blot of phosphorylated Histone 2AX (DNA damage marker); details: INI-43-cisplatin CT, 24 h, concentration dependent
Description: For protein extraction, cells were washed with PBS and lysed using RIPA buffer (50 mM Tris-CI, pH 7.4, 150 mM NaCl, 1% (w/v) sodium deoxycholate, 0.1% (v/v) SDS, 1% (v/v) Triton X-100, 2 mM EGTA, 2 mM EDTA, 50 mM NaF, 5 mM Na2P2O7, 1× complete protease inhibitor cocktail (Roche) and 0.1 M Sodium Orthovanadate). For PARP cleavage analysis, dead cells were collected by centrifugation and combined with live cell lysates. Lysates were sonicated, centrifuged, and the supernatant quantified using the BCA Protein Assay Kit (Pierce, Thermo Scientific) according to the manufacturer's instructions. Proteins were subjected to Western blot analysis using the following antibodies: rabbit anti-Kpnβ1 (H-300, sc-11,367, Santa Cruz), rabbit anti-β-tubulin (H-235, sc-9104, Santa Cruz), rabbit anti-PARP1/2 antibody (H-250, sc-7150, Santa Cruz), mouse anti-GAPDH (0411, sc-47,724, Santa Cruz), rabbit anti-p21 (H-164, sc-756, Santa Cruz), rabbit anti-Mcl-1 (H-260, sc-20,679, Santa Cruz), mouse anti-cyclin D1 (HD11, sc-246, Santa Cruz), rabbit anti-c-Myc (N-262, sc-764, Santa Cruz), mouse anti-p53 (DO-7, M7001, DakoCytomation), mouse anti-XIAP (610,763, BD Biosciences), and rabbit anti-phospho-Histone H2AX (γH2AX, Ser139, 20E3, #9718, Cell Signal).

[10] = 2 h INI-43 pre-treatment then cisplatin 48 h, vs no pre-treatment

## CN(C)CCCn1c(N)c(-c2nc3ccccc3[nH]2)c2nc3ccccc3nc21 [INI-43]
[1]; 5 μM INI-43
  cell viability, INI-43 on its own: did not affect cell viability
[1]; 5 μM INI-43 pre-treatment, fixed cisplatin concentrations, MTT 48 h
  cell viability, combination treatment vs cisplatin-only: no change in cell viability
[1]; [10]
  change in cisplatin IC50: no change
[2]; 5 μM INI-43
  cell viability, INI-43 on its own: did not affect cell viability
[2]
  cell viability, combination treatment vs cisplatin-only: significantly decreased cell viability
[2]; listed as Compound A
  cell viability, combination treatment vs cisplatin-only: increased cisplatin sensitivity
[2]; [10]
  change in cisplatin IC50: small reduction
[3]; 5 μM INI-43
  cell viability, INI-43 on its own: did not affect cell viability
[3]
  cell viability, combination treatment vs cisplatin-only: significantly decreased cell viability
[3]; listed as Compound A
  cell viability, combination treatment vs cisplatin-only: increased cisplatin sensitivity
[3]; [10]
  decrease in cisplatin IC50: 44%
[4]; 5 μM INI-43
  cell viability, INI-43 on its own: did not affect cell viability
[4]
  cell viability, combination treatment vs cisplatin-only: significantly decreased cell viability
[4]; listed as Compound A
  cell viability, combination treatment vs cisplatin-only: increased cisplatin sensitivity
[4]; [10]
  decrease in cisplatin IC50: 46%
[5]; 2 h INI-43, removed before cisplatin treatment (washout 1 and 2), 48 h
  cell viability, combination treatment vs cisplatin alone after INI-43 washout: significantly reduced cell viability
[5]; HeLa cells, vs INI-43 still present
  enhancement of cell death upon combination treatment after INI-43 washout: slightly reduced
[6]; 5 μM INI-43 alone, 24 h
  p53 reporter activity: small but significant increase
[6]; INI-43 pre-treatment plus cisplatin vs cisplatin alone
  p53 reporter activity: significantly increased
[7]; INI-43-cisplatin CT vs cisplatin
  nuclear fluorescence relative to cytoplasmic fluorescence (Fc (Nu/Cy)): significantly reduced this effect
[7]; INI-43 pre-treatment plus cisplatin
  cisplatin-induced nuclear translocation of NFκB-p50 and NFκB-p65: prevented this nuclear translocation
[8]
  levels of NFκB-p50 and NFκB-p65 in the nucleus: reduced this effect
[9]
  γH2AX levels: increased
